In the Kinase Knowledgebase extract (Sharma et al. 2016) one finds IC50 data, which are given here for 21 molecules.

For one experiment, the target named is PIK3CA (human) (UniProt P42336). The experiment in a line: Assessment of PIK3CA Kinase Activity.
A further experiment addresses PIK3CD (Human) (UniProt O00329). The experiment in a line: Assessment of PIK3CD Kinase Activity.

Structures are written as SMILES.

Sequence of PIK3CA (human) (P42336 whole entry, looked up): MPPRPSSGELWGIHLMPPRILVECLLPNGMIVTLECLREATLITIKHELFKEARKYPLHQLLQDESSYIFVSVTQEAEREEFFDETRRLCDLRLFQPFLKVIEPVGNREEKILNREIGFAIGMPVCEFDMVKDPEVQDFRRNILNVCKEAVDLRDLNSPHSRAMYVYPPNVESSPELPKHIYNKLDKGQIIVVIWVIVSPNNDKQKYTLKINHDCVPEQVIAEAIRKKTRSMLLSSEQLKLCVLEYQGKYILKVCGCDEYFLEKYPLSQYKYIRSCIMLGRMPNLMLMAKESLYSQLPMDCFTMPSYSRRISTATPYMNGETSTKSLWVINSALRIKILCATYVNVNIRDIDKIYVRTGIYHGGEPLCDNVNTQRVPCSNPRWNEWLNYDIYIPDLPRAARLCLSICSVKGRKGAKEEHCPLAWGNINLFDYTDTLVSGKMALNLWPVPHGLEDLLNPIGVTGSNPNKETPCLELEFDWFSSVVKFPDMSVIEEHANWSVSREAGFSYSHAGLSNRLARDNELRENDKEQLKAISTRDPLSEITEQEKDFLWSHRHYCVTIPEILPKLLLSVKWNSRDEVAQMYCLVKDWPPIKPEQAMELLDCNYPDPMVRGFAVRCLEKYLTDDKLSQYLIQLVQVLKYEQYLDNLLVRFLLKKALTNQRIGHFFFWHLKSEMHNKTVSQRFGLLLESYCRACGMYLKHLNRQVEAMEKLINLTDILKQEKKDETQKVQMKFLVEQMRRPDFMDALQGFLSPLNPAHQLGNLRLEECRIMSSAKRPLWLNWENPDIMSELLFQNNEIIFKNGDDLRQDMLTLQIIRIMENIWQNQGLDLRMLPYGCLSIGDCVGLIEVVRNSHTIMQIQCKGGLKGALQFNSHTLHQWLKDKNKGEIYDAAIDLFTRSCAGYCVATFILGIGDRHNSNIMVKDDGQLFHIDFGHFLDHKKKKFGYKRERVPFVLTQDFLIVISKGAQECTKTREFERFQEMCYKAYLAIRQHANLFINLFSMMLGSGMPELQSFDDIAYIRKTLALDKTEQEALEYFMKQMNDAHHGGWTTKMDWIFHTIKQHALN
Sequence of PIK3CD (Human) (O00329 whole entry, looked up): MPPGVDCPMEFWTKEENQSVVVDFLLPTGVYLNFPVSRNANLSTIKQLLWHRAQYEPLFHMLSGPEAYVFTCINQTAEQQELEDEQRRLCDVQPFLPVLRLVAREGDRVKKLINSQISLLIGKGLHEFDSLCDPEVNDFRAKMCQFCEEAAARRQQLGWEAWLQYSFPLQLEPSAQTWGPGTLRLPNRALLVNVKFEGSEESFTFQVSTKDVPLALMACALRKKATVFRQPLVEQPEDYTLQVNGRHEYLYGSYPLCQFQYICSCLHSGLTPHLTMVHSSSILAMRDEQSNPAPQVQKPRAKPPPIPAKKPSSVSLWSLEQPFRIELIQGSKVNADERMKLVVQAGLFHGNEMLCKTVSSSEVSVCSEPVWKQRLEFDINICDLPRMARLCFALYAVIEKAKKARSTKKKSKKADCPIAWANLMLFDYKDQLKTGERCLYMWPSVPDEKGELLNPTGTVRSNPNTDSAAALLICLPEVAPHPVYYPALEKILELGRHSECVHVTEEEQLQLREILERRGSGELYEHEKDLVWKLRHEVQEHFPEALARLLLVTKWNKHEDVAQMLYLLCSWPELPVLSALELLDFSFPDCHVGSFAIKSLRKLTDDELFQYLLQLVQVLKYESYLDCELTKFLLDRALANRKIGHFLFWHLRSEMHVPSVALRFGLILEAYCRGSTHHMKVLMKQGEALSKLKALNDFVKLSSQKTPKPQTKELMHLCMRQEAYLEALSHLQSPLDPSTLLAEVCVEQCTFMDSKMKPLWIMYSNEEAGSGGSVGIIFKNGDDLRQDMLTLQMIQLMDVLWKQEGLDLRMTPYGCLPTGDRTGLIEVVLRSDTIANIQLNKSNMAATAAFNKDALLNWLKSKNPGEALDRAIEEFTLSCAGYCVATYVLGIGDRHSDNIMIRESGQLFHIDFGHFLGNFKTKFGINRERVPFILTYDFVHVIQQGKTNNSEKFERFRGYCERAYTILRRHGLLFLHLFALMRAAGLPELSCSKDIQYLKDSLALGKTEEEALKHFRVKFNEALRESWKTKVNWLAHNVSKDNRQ

`Cn1c(CN2CC(C3CCOCC3)C2)nc2c(N3CCOCC3)nc(-n3c(C4CC4)nc4ccccc43)nc21` gave a half-maximal inhibitory concentration (IC50) against PIK3CA (human) of 472 nM.
In turn, `CC(C)c1nc2ccccc2n1-c1nc(N2CCOCC2)c2nc(CN3CCN(C(C)(C)CO)CC3)[nH]c2n1` registered an IC50 against PIK3CA (human) of 264 nM.
With `CN(C)C1CCN(Cc2cc3nc(-n4ccc5cnccc54)nc(N4CCOCC4)c3s2)CC1`, the IC50 at PIK3CA (human) was 207 nM.
Molecule `CC(C)(C(N)=O)N1CCN(Cc2nc3c(N4CCOCC4)nc(-c4cncc5[nH]ccc45)nc3s2)CC1` displayed an IC50 against PIK3CA (human) of 41.6 nM.
As for `Cn1c(CN2CCC(C(C)(C)O)CC2)nc2c(N3CCOCC3)nc(-c3cnc(N)c4ccccc34)nc21`, the IC50 at PIK3CA (human) worked out at 245 nM.
On PIK3CA (human), `Cc1nc2ccccc2n1-c1nc(N2CCOCC2)c2oc(CN3CCN(C(C)(C)C(N)=O)CC3)cc2n1` yielded an IC50 of 175 nM.
At PIK3CA (human), `CC(C)c1nc2ccccc2n1-c1nc(N2CCOCC2)c2nc(-c3cccnc3)n(C)c2n1` showed an IC50 of 190 nM.
`c1cc(-c2nc(N3CCOCC3)c3sc(CN4CCC(N5CCOCC5)CC4)cc3n2)c2ccncc2c1` had an IC50 on PIK3CA (human) of 5350 nM.
As to `CCc1nc2ccccc2n1-c1nc(N2CCOCC2)c2nc(CN3CCN(C(C)(C)CO)CC3)[nH]c2n1`, at PIK3CA (human), the IC50 came to 215 nM.
The same measure, in the same setting: the same measure for `CCc1nc2ccccc2n1-c1nc(N2CCOCC2)c2nc(CC(=O)N3CCC(C(C)(C)O)CC3)sc2n1`: 132 nM; for `CN(C)C1CCN(Cc2cc3nc(-c4ccc(O)c5nccn45)nc(N4CCOCC4)c3s2)CC1`: 593 nM; for `Cc1c(CN2CCN(C(C)(C)C(N)=O)CC2)sc2c(N3CCOCC3)nc(-c3cncc4[nH]ccc34)nc12`: 52.2 nM.
Regarding `CCc1nc2ccccc2n1-c1nc(N2CCOCC2)c2nc(C(=O)C3CCN(C(C)(C)C(=O)OC)CC3)n(C)c2n1`, the IC50 amounted to 0.61 nM against PIK3CD (Human) and 83 nM at PIK3CA (human).
For `CC(C)(C(N)=O)N1CCN(Cc2nc3nc(-c4cccc5nccn45)nc(N4CCOCC4)c3s2)CC1`, the IC50 at PIK3CA (human) stood at 1500 nM. That is a single-digit micromolar value.
Same read-out and setting: the same measure for `CCc1nc2ccccc2n1-c1nc(N2CCOCC2)c2nc(CCN3CCOCC3(C)C)n(C)c2n1`: 485 nM.
In the case of `CCc1nc2ccccc2n1-c1nc(N2CCOCC2)c2nc(CC3CN(C4CCS(=O)(=O)CC4)C3)n(C)c2n1`, the IC50 against PIK3CA (human) stood at 82.5 nM.
The same measure, in the same setting: for `CCc1nc2ccccc2n1-c1nc(N2CCOCC2)c2nc(CN3C[C@@H]4C[C@H]3CN4C(C)(C)CO)n(C)c2n1` the value was 218 nM; for `Cn1c(CN2CCC(C(C)(C)O)CC2)nc2c(N3CCOCC3)nc(-c3n[nH]c4ccccc34)nc21`, 2790 nM; for `COc1cccc(-c2nc3c(N4CCOCC4)nc(-n4c(C(C)C)nc5ccccc54)nc3n2C)c1`, 729 nM.
On to `COC(C)(C)C1CCN(Cc2nc3c(N4CCOCC4)nc(-c4c(C)oc5ccccc45)nc3n2C)CC1`, for which the IC50 against PIK3CA (human) was 1200 nM. Against the preceding molecule, the IC50 is about 1.6-fold higher.
Regarding `CCc1nc2ccccc2n1-c1nc(N2CCOCC2)c2nc(CC3CN(C(C)(C)C(N)=O)C3)n(C)c2n1`, the IC50 against PIK3CD (Human) was determined as 1.08 nM; on PIK3CA (human) it was 104 nM.
